# US20210188856A1, “CRYSTAL FORM OF HYDROCHLORIDE OF PYRAZOLOHETEROARYL DERIVATIVE AND PREPARATION METHOD” (JIANGSU HENGRUI MEDICINE CO., LTD., priority 2018, published 2021)
# Read-outs that look alike come from different tables or passages of the source.
# Columns and labels:
# CYP2D6 = target: T1, CYP2D6 (Homo sapiens, UniProt P10635); experiment: Inhibition of CYP2D6 in human liver microsome; format: in vitro ADME
# T1 construct: CYP2D6 in human liver microsome; tissue Corning Gentest; host or cells: human liver microsomes
# Description: The effect of the compound represented by formula (I) on the enzyme activity of CYP2D6 in human liver microsome was determined by the following experimental method:
# 100 mM PBS buffer was formulated, which was then used to formulate 2.5 mg/mL microsome solution and 5 mM NADPH solution. The 5× concentration of the compound working solution was diluted with PBS gradient (150, 50, 15, 5, 1.5, 0.15, 0.015, 0 μM). The 5× concentration of quinidine working solution was diluted with PBS gradient (150, 50, 15, 5, 1.5, 0.15, 0.015, 0 μM). Dextromethorphan working solution was diluted with PBS to a concentration of 50 μM.
# 20 μL of the 2.5 mg/mL microsome solution, 20 μL of the 50 μM […] working solution, 20 μL of MgCl2 solution and 20 μL of the compound working solution (150, 50, 15, 5, 1.5, 0.15, 0.015, 0 μM, different reaction systems for each concentration) were taken respectively and mixed well. For the positive control group, the compound was replaced with the same concentration of quinidine. The mixture together with the 5 mM NADPH solution was pre-incubated at 37° C. for 5 minutes. After 5 minutes, 20 μL of NADPH was added to each well, the reaction was started and incubated for 30 minutes. […] 80 μL of the supernatant was taken and analyzed by LC-MS/MS.
# The data were calculated by Graphpad Prism to obtain the IC50 value of the compound on the metabolite site of CYP2D6.
# Log D = format: physicochemical
# human TLR8 = target: T2, human TLR8 (Homo sapiens, UniProt Q9NR97); experiment: Agonistic effect on human TLR8 (HEK-Blue hTLR8 cells); format: cell-based
# T2 construct: host or cells: HEK-Blue hTLR8 (HEK293-derived) stably transfected cells
# T2 sequence (Q9NR97 27-1041): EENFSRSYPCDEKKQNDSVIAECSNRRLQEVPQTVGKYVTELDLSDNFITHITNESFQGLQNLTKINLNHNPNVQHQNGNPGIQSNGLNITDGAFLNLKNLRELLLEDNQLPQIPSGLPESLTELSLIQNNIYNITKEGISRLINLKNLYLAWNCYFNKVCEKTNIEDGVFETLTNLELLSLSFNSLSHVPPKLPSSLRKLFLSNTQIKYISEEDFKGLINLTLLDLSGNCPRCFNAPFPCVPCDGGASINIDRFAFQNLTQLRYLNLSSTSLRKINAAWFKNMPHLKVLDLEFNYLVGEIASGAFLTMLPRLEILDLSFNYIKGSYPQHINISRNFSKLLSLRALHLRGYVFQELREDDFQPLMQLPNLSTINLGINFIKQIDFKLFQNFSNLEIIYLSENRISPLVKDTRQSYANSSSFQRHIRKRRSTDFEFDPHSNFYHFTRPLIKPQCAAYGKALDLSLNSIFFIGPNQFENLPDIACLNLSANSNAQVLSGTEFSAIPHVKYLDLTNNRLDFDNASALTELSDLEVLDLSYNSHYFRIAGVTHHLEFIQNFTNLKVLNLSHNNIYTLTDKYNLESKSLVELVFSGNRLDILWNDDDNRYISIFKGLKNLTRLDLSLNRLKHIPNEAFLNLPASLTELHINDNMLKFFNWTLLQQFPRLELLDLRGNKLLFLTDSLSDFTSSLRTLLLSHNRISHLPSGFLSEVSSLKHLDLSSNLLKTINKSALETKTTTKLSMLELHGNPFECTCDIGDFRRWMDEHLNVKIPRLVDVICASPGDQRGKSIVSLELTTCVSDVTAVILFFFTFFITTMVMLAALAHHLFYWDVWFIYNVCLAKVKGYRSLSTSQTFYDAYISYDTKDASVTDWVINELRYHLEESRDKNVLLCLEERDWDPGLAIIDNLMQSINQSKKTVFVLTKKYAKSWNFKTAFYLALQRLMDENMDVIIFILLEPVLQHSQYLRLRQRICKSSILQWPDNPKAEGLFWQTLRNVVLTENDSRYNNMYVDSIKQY
# Description: The agonistic effect of the compound represented by formula (I) on the hTLR8 protein expressed in HEK-Blue™ hTLR8 stably transfected cells was determined by the following experimental method:
# A bag of HEK-Blue detection dry powder was dissolved in 50 mL of water free of endotoxin, and the solution was then placed in an incubator at 37° C. for 10 minutes followed by sterile filtration to prepare a HEK-Blue detection medium. The compound was firstly formulated into a 20 mM stock solution, then diluted with pure DMSO to a maximum concentration of 6×10^6 nM, and a total of 10 points were obtained by a 3-fold gradient dilution. The compound was firstly diluted 20-fold with the medium, then 20 μL of the diluted compound was added to each well.
# The supernatant was removed from the HEK-Blue™ hTLR8 cells, to which 2-5 mL of pre-warmed PBS was then added. The cells were placed in an incubator for 1-2 minutes, gently pipetted, and counted by trypan blue staining. The cells were re-suspended in the HEK-Blue detection medium and the concentration was adjusted to 2.2×10^5 cells/mL. 180 μL of cells was added to the above 96-well plate added with 20 μL of the compound, and incubated at 37° C. for 6-16 hours.
# The plate was read with a microplate reader at a wavelength of 620 nm. The corresponding OD values were obtained, and the EC50 value of the compound was calculated by Graphpad Prism.
# [1] = Solubility in PBS 7.4 and FaSSIF solutions; format: physicochemical; conditions: thermodynamic from solid
# From the text: The amorphous samples of the compound represented by formula (I) and the crystal form I samples of the dihydrochloride salt of the compound represented by formula (I) obtained in the present disclosure were further evaluated for solubility in PBS 7.4 and FaSSIF solutions.
# T1 sequence (P10635 whole entry): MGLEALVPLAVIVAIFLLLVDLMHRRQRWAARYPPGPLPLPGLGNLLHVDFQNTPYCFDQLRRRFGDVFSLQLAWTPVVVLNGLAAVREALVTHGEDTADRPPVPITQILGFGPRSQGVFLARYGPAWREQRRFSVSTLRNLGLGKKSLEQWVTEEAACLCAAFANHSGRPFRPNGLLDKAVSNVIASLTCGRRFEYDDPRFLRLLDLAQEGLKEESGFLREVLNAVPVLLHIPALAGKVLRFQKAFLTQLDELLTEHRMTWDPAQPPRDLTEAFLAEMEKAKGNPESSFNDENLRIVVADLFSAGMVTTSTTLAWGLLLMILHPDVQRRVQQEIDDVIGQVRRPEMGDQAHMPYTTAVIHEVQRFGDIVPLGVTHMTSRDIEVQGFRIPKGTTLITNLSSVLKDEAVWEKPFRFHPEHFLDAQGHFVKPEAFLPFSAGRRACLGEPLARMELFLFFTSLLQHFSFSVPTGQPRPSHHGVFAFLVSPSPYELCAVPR
smiles,measurement,setting,value
"CCCCOc1nc(N)c2cnn(Cc3ccc(CN4CCCC4)cc3)c2n1 [compound represented by formula (I), 6-Butoxy-1-(4-(pyrrolidin-1-ylmethyl)benzyl)-1H-pyrazolo[3,4-d]pyrimidin-4-amine]",inhibitory effect against CYP2D6 (in words),CYP2D6,no inhibitory effect
same,IC50,CYP2D6; dextromethorphan probe,> 30 µM
same,Log D,Log D,1.21
same,agonistic effect on human TLR8 (in words),human TLR8; HEK-Blue hTLR8 cells,no agonistic effect
same,selectivity for TLR7 over TLR8 (in words),human TLR8; from TLR7 and TLR8 results,high selectivity
same,solubility,"[1]; FaSSIF solution, fassif, read-out: FasSIF Solubility",1090 µg/mL
same,solubility,"[1]; PBS 7.4, pH 7.4, aqueous buffer, read-out: PBS 7.4 Solubility",30 µg/mL
